Experimental data reported in PMC11208149, “Structure of plant photosystem I in a native assembly state defines PsaF as a regulatory checkpoint” (Nature Plants, 2024).

Key:
[1] = biological target: T1, mature PSI (Avena sativa, UniProt A0A3G1AUL2+A0A3G1AZK6); experiment: cryo-EM structure ([…] Å); format: binding
T1 construct: gene psaA; native PSI-LHCI complex purified from mature green leaves, detergent-solubilised; with Photosystem I iron-sulfur center; Photosystem I reaction center subunit II, chloroplastic; Photosystem I reaction center subunit IV, chloroplastic; Photosystem I reaction center subunit III, chloroplastic; Photosystem I reaction center subunit V, chloroplastic; Photosystem I reaction center subunit VI, chloroplastic; Photosystem I reaction center subunit VIII; Photosystem I reaction center subunit IX; Photosystem I reaction center subunit psaK, chloroplastic; Photosystem I reaction center subunit XI, chloroplastic; Photosystem I reaction center subunit N, chloroplastic

[2] = biological target: T2, pre-PSI-1 (PSI assembly intermediate) (Avena sativa, UniProt A0A3G1AUL2+A0A3G1AZK6); experiment: cryo-EM structure ([…] Å); format: binding; conditions: native cofactor; site PQN844 of PsaA
T2 construct: gene psaA; native eight-subunit complex from thylakoids of greening seedlings (10 h light), DDM-solubilised; lacks PsaF, PsaG, PsaJ, PsaK, PsaN and LHCI; with Photosystem I iron-sulfur center; Photosystem I reaction center subunit II, chloroplastic; Photosystem I reaction center subunit IV, chloroplastic; Photosystem I reaction center subunit VI, chloroplastic; Photosystem I reaction center subunit VIII; Photosystem I reaction center subunit XI, chloroplastic
T2 sequence (A0A3G1AUL2 1-750): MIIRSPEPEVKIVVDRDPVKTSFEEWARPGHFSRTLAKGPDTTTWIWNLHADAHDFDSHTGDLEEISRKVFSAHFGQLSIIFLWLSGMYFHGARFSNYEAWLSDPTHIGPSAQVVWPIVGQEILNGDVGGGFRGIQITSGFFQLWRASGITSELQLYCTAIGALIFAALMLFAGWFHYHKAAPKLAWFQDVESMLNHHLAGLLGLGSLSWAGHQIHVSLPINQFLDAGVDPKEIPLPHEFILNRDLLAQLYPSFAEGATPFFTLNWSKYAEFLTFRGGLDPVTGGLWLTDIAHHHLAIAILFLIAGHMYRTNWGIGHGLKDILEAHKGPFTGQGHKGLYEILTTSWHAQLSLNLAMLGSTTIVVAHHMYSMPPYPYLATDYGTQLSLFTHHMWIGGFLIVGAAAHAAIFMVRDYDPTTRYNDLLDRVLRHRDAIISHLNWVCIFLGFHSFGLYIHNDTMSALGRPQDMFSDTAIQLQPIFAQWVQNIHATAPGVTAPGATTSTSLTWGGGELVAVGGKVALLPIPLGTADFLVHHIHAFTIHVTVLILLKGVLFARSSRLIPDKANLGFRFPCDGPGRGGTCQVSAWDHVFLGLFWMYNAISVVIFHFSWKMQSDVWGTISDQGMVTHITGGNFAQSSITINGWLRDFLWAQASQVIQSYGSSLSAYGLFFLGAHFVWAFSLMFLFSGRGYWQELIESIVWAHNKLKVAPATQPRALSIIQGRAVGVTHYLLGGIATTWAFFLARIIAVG
T2 sequence (A0A3G1AZK6 1-734): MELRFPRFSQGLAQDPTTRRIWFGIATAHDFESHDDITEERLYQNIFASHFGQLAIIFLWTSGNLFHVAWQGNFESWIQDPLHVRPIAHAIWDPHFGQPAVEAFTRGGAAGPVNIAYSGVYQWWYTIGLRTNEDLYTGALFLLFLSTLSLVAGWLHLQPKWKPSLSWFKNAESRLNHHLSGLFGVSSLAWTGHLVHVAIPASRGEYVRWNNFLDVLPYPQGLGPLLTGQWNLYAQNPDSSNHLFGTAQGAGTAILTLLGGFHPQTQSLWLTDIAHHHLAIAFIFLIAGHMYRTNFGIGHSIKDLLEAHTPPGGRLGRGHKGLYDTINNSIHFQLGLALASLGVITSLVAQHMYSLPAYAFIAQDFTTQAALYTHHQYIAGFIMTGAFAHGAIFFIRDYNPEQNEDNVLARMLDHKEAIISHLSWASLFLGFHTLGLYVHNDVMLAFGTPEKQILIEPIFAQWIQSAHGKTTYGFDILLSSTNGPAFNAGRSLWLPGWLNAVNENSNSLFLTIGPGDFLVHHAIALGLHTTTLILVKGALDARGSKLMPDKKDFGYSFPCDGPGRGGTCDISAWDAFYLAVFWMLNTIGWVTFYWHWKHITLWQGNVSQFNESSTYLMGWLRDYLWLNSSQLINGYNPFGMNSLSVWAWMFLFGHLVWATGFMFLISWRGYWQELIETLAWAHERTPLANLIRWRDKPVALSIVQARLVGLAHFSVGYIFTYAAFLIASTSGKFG
T2 sequence (A0A3G1ATU7 2-81 partner): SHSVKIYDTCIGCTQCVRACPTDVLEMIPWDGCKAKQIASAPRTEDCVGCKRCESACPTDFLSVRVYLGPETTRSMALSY
T2 sequence (A0A3G1AZM6 1-36 partner): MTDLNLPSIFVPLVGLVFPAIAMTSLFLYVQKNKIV

T1 sequence (A0A3G1AUL2 1-750): as the sequence (A0A3G1AUL2 1-750) above
T1 sequence (A0A3G1AZK6 1-734): as the sequence (A0A3G1AZK6 1-734) above
T1 sequence (A0A3G1ATU7 2-81 partner): as the sequence (A0A3G1ATU7 2-81 partner) above
T1 sequence (A0A3G1AZM6 1-36 partner): as the sequence (A0A3G1AZM6 1-36 partner) above
T1 sequence (A0A3G1AZP2 1-42 partner): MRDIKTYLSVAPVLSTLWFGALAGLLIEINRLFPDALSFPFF

SMILES | cryo-EM structure (2.2 Å) ([1]; native pigment, site BCR856, near the PSI core - LHCI interface) | cryo-EM structure (2.2 Å) ([1]; native cofactor, site PQN844 of PsaA) | cryo-EM structure (2.1 Å) [2]
CC1=C(/C=C/C(C)=C/C=C/C(C)=C/C=C/C=C(C)/C=C/C=C(C)/C=C/C2=C(C)CCCC2(C)C)C(C)(C)CCC1 [BCR, β-carotene] | the head group of β-carotene BCR856 resides in the mature structure |  | 
CC1=C(C/C=C(\C)CCC[C@H](C)CCC[C@H](C)CCCC(C)C)C(=O)c2ccccc2C1=O [PQN, phylloquinone] |  | phylloquinone PQN844 (PsaA) shows an altered conformation of the isoprenoid chain | phylloquinone PQN844 (PsaA) shows an altered conformation of the isoprenoid chain
